{
  "source": "patent US11731977B2",
  "about": "“SGC stimulators” (Cyclerion Therapeutics, Inc., priority 2016, dated 2023)",
  "key": {"[1]": {"system": "Sprague-Dawley rats, streptozotocin model", "test": "Rat model of diabetic neuropathy (STZ model), paw pressure test (Example 14)", "type": "in vivo", "conditions": "Compound I-1 10 mg/kg p.o., gabapentin 100 mg/kg p.o., morphine 4 mg/kg s.c., mean±s.e.m."}, "male Long Evans rats": {"system": "male Long Evans rats", "test": "Novel Object Recognition (NOR) test, MK-801-induced memory disruption (Example 10)", "type": "in vivo, rat", "conditions": "for Recognition Index, Mean: 0 to 3 minute time bin", "text": "Objective. To assess the efficacy of compounds of the invention in reversing memory disruption induced by MK-801 using the Novel Object Recognition (NOR) test in male Long Evans rats. The NOR is a test of recognition learning and memory retrieval, which takes advantage of the spontaneous preference of rodents to investigate a novel object compared with a familiar one (Ennaceur and Delacour, 1988). […] The NOR test has been employed extensively to assess the potential cognitive-enhancing properties of novel test compounds. […] In the present study, a memory saving model was used to test the novel compound—MK-801 (Dizocilpine), an uncompetitive antagonist of the NMD A receptor was used to cause deficit of recognition memory. Compounds of the invention were evaluated through its efficacy in reversing memory impairment.\nAnimals. Adult male Long-Evans rats (275-299 gram at arrival from Envigo, Indianapolis, Ind.) were used in this study. Rats were placed in the experimental rooms and assigned unique identification numbers (tail marks). Rats were housed 2 per cage in polycarbonate cages with filter tops and acclimated for at least 7 days prior to testing. Animal room was maintained in a 12/12 h light/dark cycle (lights on at 07.00 EST), 22±1° C. and relative humidity at approximately 50%. Food and water were provided ad libitum. All animals were examined, handled and weighed prior to the study to assure adequate health and to minimize the non-specific stress associated with testing. Each animal was randomly assigned across the treatment groups. The experiments were conducted during the animal's light cycle phase.\nMK-801 (0.1 mg/kg; Sigma-Aldrich) was dissolved in saline and injected IP 15 min prior to NOR training.\nGalantamine (1 mg/kg; Tocris) was dissolved in saline and injected IP 15 minutes prior to training.\nCompound I-1 (0.01, 0.1, and 1 mg/kg) was oral administrated 60 minutes prior to training. The dose volume was 4 ml/kg\nExperimental procedures. NOR test was conducted in an open-field arena (40×40 cm) placed in a sound-attenuated room under dimmed lighting. Each rat was tested separately and care was taken to remove olfactory/taste cues by cleaning the arena and test objects with 70% alcohol between trials and rats. All training and testing trials were video-taped and scored by an observer blind to treatments.\nOn Days 1 and 2, rats were allowed to freely explore the arena (no objects inside) for a 5-minute habituation period. On Day 3 (training and testing day), rats were administered vehicle (saline), galantamine or compound solutions followed by MK-801 or vehicle (saline). After the pretreatment time, each animal was placed into the test arena in the presence of two identical objects. Each rat was placed in the arena facing the same direction at the same position, and the time spent actively exploring the objects during a 3-minute training period (T1) was recorded. The rat was returned to its home cage following training. NOR test (T2) was conducted 1 hours after T1. Each rat was placed back into the test arena in the presence of one familiar object and one novel object for 5 minutes, and the time spent exploring both objects was recorded during 0-1, 0-3 and 0-5 min time ranges. The presentation order and position of the objects (left/right) in T2 was randomized between rats to prevent bias from order or place preference.\nStatistical Analysis. Data of NOR test (T2) were expressed as Recognition Index, which is defined as the ratio of the time spent exploring the novel object over the total time spent exploring both objects (Novel/(Familiar+Novel)×100%) during the test session. Data were analyzed by using one-way ANOVA followed by Fisher's LSD post hoc test on 0-1, 0-3 and 0-5 minute time range separately, with significance set at P<0.05. […] And then statistical outliers that fell above or below two standard deviations from the mean were removed from the final analysis. […]"}, "rats [2]": {"system": "rats", "test": "Inflammatory pain: carrageenan, paw pressure test (Example 13)", "type": "in vivo, rat", "conditions": "Indomethacin 30 mg/kg p.o."}, "rats [3]": {"system": "rats", "test": "Inflammatory pain: kaolin, gait score (Example 13)", "type": "in vivo, rat", "conditions": "Indomethacin 30 mg/kg p.o.", "experimental": "Kaolin. Induction: In rats, unilateral arthritis was induced by an intra-articular injection of a 10% kaolin suspension into the knee joint of the right hind paw under gas anesthesia (3.5% isoflurane/3 L/min). Gait score: The gait score will be evaluated 3 h 30 min after kaolin administration by:\n2: intermittent raising of the paw"}, "rats [4]": {"system": "rats", "test": "Post-operative pain: Brennan model, electronic Von Frey test (Example 13)", "type": "in vivo, rat", "conditions": "Morphine 4 mg/kg s.c.", "text": "Surgery: Surgery was done under gas anesthesia (2.5% isoflurane/3 L/min). For all rats, the plantar aspect of the left hind paw was exposed and a 1 cm longitudinal incision was made using a surgical blade, through the skin and fascia of the plantar aspect of the foot, starting 0.5 cm from the proximal edge of the heel and extending toward the toes. The plantaris muscle was elevated and incised longitudinally whereas the insertions remained intact. After hemostasis with gentle pressure, the skin was stitched up with two sutures. After surgery, animals recovered in their cages.\nElectronic Von Frey Test: Tactile allodynia was assessed using the electronic Von Frey test 24 h after surgery. […] The apparatus exerted a steady force on the hind paws. […] Each reaction threshold measurement was repeated three times for both hind paws with intervals of approximately 2 to 3 mins."}, "rats [5]": {"system": "rats", "test": "Acute and tonic pain: formalin test, score (Example 13)", "type": "in vivo, rat", "conditions": "Morphine 4 mg/kg s.c.", "experimental": "Formalin Test. 2.5% formalin solution was injected by subplantar route into the right hind paw. Scoring of pain behavior was performed in rats for 36 minutes every 3 minutes according to the following scores:\n0=normal behavior of the injected hind limb to support the body\n1=slight touching of the injected paw on the floor to lightly support or not support the body\n2=total withdrawal of the injected paw\n3=licking, biting or shaking of the injected paw"}, "rats [6]": {"system": "rats", "test": "Acute and tonic pain: healthy rats, paw pressure test (Example 13)", "conditions": "Morphine 4 mg/kg s.c.", "protocol": "Paw Pressure Test. Static mechanical hyperalgesia is measured. This test requires the application of an increasing pressure on the hind paws between a flat surface and a blunt pointer. To evaluate the analgesic action of a compound, one hind paw of the animal was inflamed by an injection or injured by ligation, while the other hind paw was not injured or inflamed. The apparatus exerted a steadily increasing force on the hind paws. The reaction threshold was determined as the pressure (g) required to elicit paw withdrawal and/or vocalization. The animals were gently handled by the experimenter and static mechanical hyperalgesia were assessed two times for both hind paws.\n(§1) Testing: 120 minutes after treatment. N=4/model/test. Results are expressed for each group as a percentage of activity calculated from the mean value of the vehicle-treated animals and compared to naïve animals, control paw, or cut-off value, depending on the test."}, "rats [7]": {"system": "rats", "test": "Acute and tonic pain: healthy rats, tail flick test (Example 13)", "conditions": "Morphine 4 mg/kg s.c.", "protocol": "Tail Flick Test. A radiant heat was applied on the tail. When the rat felt discomfort, it reacted by a sudden tail movement (tail flick) which automatically stopped the stimulation and the timer for the measurement by the animal reaction time or nociceptive reaction latency (period from the beginning of the stimulation until detection of the response of the animal). A cut-off was previously fixed at 10 sec in order to prevent tissue damage.\nas §1"}, "[8]": {"conditions": "D18, 60 min post administration"}, "[9]": {"conditions": "D18, 120 min post administration"}},
  "data": [
    {"smiles": "NCC1(CC(=O)O)CCCCC1", "note": "[Gabapentin]", "values": [
      {"measurement": "nociceptive threshold (paw pressure test)", "setting": "[1]; [8]", "value": "272 ± 6.6", "unit": "g"},
      {"measurement": "nociceptive threshold (paw pressure test)", "setting": "[1]; [9]", "value": "302 ± 17.7", "unit": "g"},
      {"measurement": "nociceptive threshold (paw pressure test)", "setting": "[1]; D21, 120 min after dosing", "value": "274 ± 19.2", "unit": "g"}
    ]},
    {"smiles": "COc1ccc2c3c1O[C@H]1C[C@@H](O)C=C[C@@]31CCN(C)C2", "note": "[Galantamine, reference compound]", "values": [
      {"measurement": "Recognition Index, Mean", "setting": "male Long Evans rats; Galantamine (1 mg/kg IP) + MK-801", "value": 66.2, "unit": "%"}
    ]},
    {"smiles": "COc1ccc2c(c1)c(CC(=O)O)c(C)n2C(=O)c1ccc(Cl)cc1", "note": "[Indomethacin, reference compound]", "values": [
      {"measurement": "% of activity vs. vehicle", "setting": "rats [2]", "value": 100, "unit": "%"},
      {"measurement": "% of activity vs. vehicle", "setting": "rats [3]", "value": 58, "unit": "%"}
    ]},
    {"smiles": "C[C@]12N[C@H](Cc3ccccc31)c1ccccc12", "note": "[MK-801, MK-801 (Dizocilpine), reference compound]", "values": [
      {"measurement": "Recognition Index, Mean", "setting": "male Long Evans rats; Vehicle + MK-801 (0.1 mg/kg IP)", "value": 54.1, "unit": "%"},
      {"measurement": "effect on recognition memory (Recognition Index approaching chance level, 50%)", "setting": "male Long Evans rats; MK-801 0.1 mg/kg IP, 0-1, 0-3 and 0-5 min", "value": "caused a strong memory deficit"}
    ]},
    {"smiles": "CN1CC[C@]23c4c5ccc(O)c4O[C@H]2[C@@H](O)C=C[C@H]3[C@H]1C5", "note": "[Morphine, reference compound]", "values": [
      {"measurement": "nociceptive threshold (paw pressure test)", "setting": "[1]; [8]", "value": "420 ± 35", "unit": "g"},
      {"measurement": "nociceptive threshold (paw pressure test)", "setting": "[1]; [9]", "value": "317 ± 27.6", "unit": "g"},
      {"measurement": "nociceptive threshold (paw pressure test)", "setting": "[1]; D21, 120 min after dosing", "value": "283 ± 16.7", "unit": "g"},
      {"measurement": "% of activity vs. vehicle", "setting": "rats [4]", "value": 88, "unit": "%"},
      {"measurement": "% of activity vs. vehicle", "setting": "rats [5]; Formalin test - score (early phase)", "value": 57, "unit": "%"},
      {"measurement": "% of activity vs. vehicle", "setting": "rats [5]; Formalin test - score (late phase)", "value": 38, "unit": "%"},
      {"measurement": "% of activity vs. vehicle", "setting": "rats [6]", "value": 69, "unit": "%"},
      {"measurement": "% of activity vs. vehicle", "setting": "rats [7]", "value": 66, "unit": "%"}
    ]}
  ]
}
